Assay results published in US20120022142A1, “RNA Interference Mediated Inhibition of Signal Transducer and Activator of Transcription 1 (STAT1) Gene Expression Using Short Interfering Nucleic Acid (siNA)” (Merck Sharp & Dohme Corp., priority 2009, published 2012).
[invAb] = inverted abasic unit; d = 2'-deoxy (DNA); m = 2'-O-methyl; r = 2'-OH (RNA); f = 2'-fluoro

Tests used:
STAT1 human mRNA = test: Initial screen of siNAs: STAT1 mRNA knock-down in A549 cells (96-well transfection, Taqman RT-PCR); type: cell-based; details: 10 nM siNA, 24 hrs, normalized against GAPDH, average of 2 experiments
Experimental: A549 (human; ATCC cat# CCL-185): Cells were cultured at 37° C. in the presence of 5% CO2 and grown in Ham's F12K medium with 2 mM L-glutamine adjusted to contain 1.5 g/L sodium bicarbonate and supplemented with fetal bovine serum at a final concentration of 10% and 100 μg/mL of streptomycin and 100 U/mL penicillin.
(§1) Cells were plated in all wells of a tissue-culture treated, 96-well plate at a final count of 5000 cells/well in 100 μL of the appropriate culture media. The cells were cultured for 24 hours after plating at 37° C. in the presence of 5% CO2.
(§2) After 24 hours, complexes containing siNA and RNAiMax were created as follows: A solution of RNAiMax diluted 33-fold in OPTI-MEM was prepared. In parallel, solutions of the siNAs for testing were prepared to a final concentration of 120 nM in OPTI-MEM. After incubation of RNAiMax/OPTI-MEM solution at room temperature for 5 min, an equal volume of the siNA solution and the RNAiMax solution were added together for each of the siNAs.
(§3) This solution was incubated at room temperature for 20 minutes. After incubation, 20 uL of the solution was added to each of the relevant wells. The final concentration of siNA in each well was 10 nM and the final volume of RNAiMax in each well was 0.3 ul.
(§4) The time of incubation with the RNAiMax-siNA complexes was 24 hours and there was no change in media between transfection and harvesting, unless otherwise indicated.
(§5) RNA was extracted from a 96-well plate using the TaqMan® Gene Expression Cells-to-CT™ Kit (Cat# 4399002) with a modified protocol. Briefly, a 60 uL (1 plate) or 110 uL (2 plates) of the Lysis Solution with DNase I was dispensed into each well of the Lysis Buffer Plate (twin.tec full skirt plate). The lysis buffer and stop plates were stored at 4° C. until the cells were washed.
(§6) The culture medium was aspirated and discarded from the wells of the culture plate. 50 uL of chilled DPBS was added to each well, then aspirated and discarded. The lysis was performed automatically using a BioMek FX instrument and method. After the Biomek method was completed, the lysis plate was incubated for 2 min at room temperature. The lysis plate can be stored for 2 hours at 4° C., or at −20° C. or −80° C. for two months.
(§7) Each well of the reverse transcription plate required 10 uL of 2× reverse transcriptase Buffer, 1 uL of 20× reverse transcription enzyme and 2 uL of nuclease-free water. The reverse transcription master mix was prepared by mixing 2× reverse transcription buffer, 20× reverse transcription enzyme mix, and nuclease-free water. 13 uL of the reverse transcription master mix was dispensed into each well of the reverse transcription plate (semi-skirted). A separate reverse transcription plate was prepared for each cell plate. The plate was loaded onto a Biomek NX or Biomek FX Dual-96 and the Biomek method was run. The program is programmed to automatically added 7 uL of lysate from the cell lysis procedure described above into each well of the reverse transcription plate. The plate is sealed and spun on a centrifuge (1000 rpm for 30 seconds) to settle the contents to the bottom of the reverse transcription plate. The plate is placed in a thermocycler at 37° C. for 60 min, 95° C. for 5 min, and 4° C. until the plate is removed from the thermocycler. Upon removal, if not used immediately, the plate was frozen at −20° C.
(§8) A series of probes and primers were used to detect the various mRNA transcripts of the genes of β-Actin (human cell line only), and of STAT1 and GAPDH in mouse and human cell lines. All Taqman probes and primers for the experiments here-in described were supplied as pre-validated sets by Applied Biosystems, Inc. (see Table 2).
The assays were performed on an ABI 7900 instrument, according to the manufacturer's instructions.
Within each experiment, the baseline was set in the exponential phase of the amplification curve, and based on the intersection point of the baselines with the amplification curve, a Ct value was assigned by the instrument. […]

STAT1 mouse mRNA = test: Initial screen of siNAs: STAT1 mRNA knock-down in NIH 3T3 cells (96-well transfection, Taqman RT-PCR); type: cell-based; details: 10 nM siNA, 24 hrs, normalized against GAPDH, average of 2 experiments
Experimental: NIH 3T3 (mouse; ATCC cat# CRL-1658): Cells were cultured at 37° C. in the presence of 5% CO2 and grown in Dulbecco's modified Eagle's medium (DMEM) with 4 mM L-glutamine adjusted to contain 1.5 g/L sodium bicarbonate and 4.5 g/L glucose and supplemented with fetal bovine serum at a final concentration of 10%, 100 μg/mL of streptomycin, and 100 U/mL penicillin.
as §1, §2, §3, §4, §5, §6, §7, §8
The assays were performed on an ABI 7900 instrument, according to the manufacturer's instructions. […]

| Substance | % KD Human (STAT1 human mRNA) [%] | % KD Mouse (STAT1 mouse mRNA) [%] |
| --- | --- | --- |
| 25362-DC: STAT1 siNA duplex, human target site 222; modified strands SEQ ID NO: 61 and 62 (chain 1 CUCGAGAGCUGUCUAGGUUTT; chain 2 AACCUAGACAGCUCUCGAGUU; chain 1: DNA at AGT, 2'-fluoro at CU, [invAb] at 5' end, 3' end, backbone not given here; chain 2: sugars from the 5' end rrrffmmmfmmfffffmmmmm, backbone not given here) | 87 | 45 |
| 25365-DC: STAT1 siNA duplex, human target site 431; modified strands SEQ ID NO: 67 and 68 (chain 1 CCAUGGAAAUCAGACAGUATT; chain 2 UACUGUCUGAUUUCCAUGGUU; chain 1: DNA at AGT, 2'-fluoro at CU, [invAb] at 5' end, 3' end, backbone not given here; chain 2: sugars from the 5' end rrrfmfffmmfffffmfmmmm, backbone not given here) | 87 | 80 |
| 25363-DC: STAT1 siNA duplex, human target site 480; modified strands SEQ ID NO: 63 and 64 (chain 1 GGAGCACGCUGCCAAUGAUTT; chain 2 AUCAUUGGCAGCGUGCUCCUU; chain 1: DNA at AGT, 2'-fluoro at CU, [invAb] at 5' end, 3' end, backbone not given here; chain 2: sugars from the 5' end rrrmffmmfmmfmfmffffmm, backbone not given here) | 83 | 72 |
| 25353-DC: STAT1 siNA duplex, human target site 2253; modified strands SEQ ID NO: 43 and 44 (chain 1 CACGAAGAAAGAACUUUCUTT; chain 2 AGAAAGUUCUUUCUUCGUGUU; chain 1: DNA at AGT, 2'-fluoro at CU, [invAb] at 5' end, 3' end, backbone not given here; chain 2: sugars from the 5' end rrrmmmffffffffffmfmmm, backbone not given here) | 86 | 79 |
| 25350-DC: STAT1 siNA duplex, human target site 190; modified strands SEQ ID NO: 37 and 38 (chain 1 GCGCAGAAAAGUUUCAUUUTT; chain 2 AAAUGAAACUUUUCUGCGCUU; chain 1: DNA at AGT, 2'-fluoro at CU, [invAb] at 5' end, 3' end, backbone not given here; chain 2: sugars from the 5' end rrrfmmmmfffffffmfmfmm, backbone not given here) | 82 | 31 |
| 25348-DC: STAT1 siNA duplex, human target site 746; modified strands SEQ ID NO: 33 and 34 (chain 1 GCACAGUGAUGUUAGACAATT; chain 2 UUGUCUAACAUCACUGUGCUU; chain 1: DNA at AGT, 2'-fluoro at CU, [invAb] at 5' end, 3' end, backbone not given here; chain 2: sugars from the 5' end rrrfffmmfmffmffmfmfmm, backbone not given here) | 51 | 37 |
| 25364-DC: STAT1 siNA duplex, human target site 674; modified strands SEQ ID NO: 65 and 66 (chain 1 GUCUGAAGGAAGAAAGGAATT; chain 2 UUCCUUUCUUCCUUCAGACUU; chain 1: sugars from the 5' end d1 f3 d17, [invAb] at 5' end, 3' end, backbone not given here; chain 2: sugars from the 5' end r3 f12 m3 f1 m2, backbone not given here) | 88 | 83 |
| 25366-DC: STAT1 siNA duplex, human target site 965; modified strands SEQ ID NO: 69 and 70 (chain 1 UGCUUGACAAUAAGAGAAATT; chain 2 UUUCUCUUAUUGUCAAGCAUU; chain 1: DNA at AGT, 2'-fluoro at CU, [invAb] at 5' end, 3' end, backbone not given here; chain 2: sugars from the 5' end rrrfffffmffmffmmmfmmm, backbone not given here) | 88 | 86 |
| 25346-DC: STAT1 siNA duplex, human target site 837; modified strands SEQ ID NO: 29 and 30 (chain 1 CCUGGAAGAUUUACAAGAUTT; chain 2 AUCUUGUAAAUCUUCCAGGUU; chain 1: DNA at AGT, 2'-fluoro at CU, [invAb] at 5' end, 3' end, backbone not given here; chain 2: sugars from the 5' end rrrffmfmmmffffffmmmmm, backbone not given here) | 62 | 31 |
| 25352-DC: STAT1 siNA duplex, human target site 540; modified strands SEQ ID NO: 41 and 42 (chain 1 GCUGGAUGAUCAAUAUAGUTT; chain 2 ACUAUAUUGAUCAUCCAGCUU; chain 1: DNA at AGT, 2'-fluoro at CU, [invAb] at 5' end, 3' end, backbone not given here; chain 2: sugars from the 5' end rrrmfmffmmffmfffmmfmm, backbone not given here) | 91 | 34 |
